Measured values from patent US4985434A, “7-substituted derivatives of 2-amino-3H,5H-pyrrolo(3,2-d)pyrimidin-4-ones and pharamceutical uses and compositions containing the same” (Biocryst, Inc., priority 1989, dated 1991).
Read-outs that look alike come from different tables or passages of the source. Each block holds one compound with its values, some of them ahead of it.

How the values were obtained:
[1] = molecular target: T1, purine nucleoside phosphorylase (PNP) (Bos taurus, UniProt P55859); test: PNP enzyme assay, radiochemical formation of [14C]-hypoxanthine from [14C]-inosine, calf spleen enzyme; assay type: biochemical; details: for enzyme-inhibition activity: tested as in Example 8
T1 construct: using calf spleen as the enzyme source; from tissue; host or cells: calf spleen
T1 sequence (P55859 1-289): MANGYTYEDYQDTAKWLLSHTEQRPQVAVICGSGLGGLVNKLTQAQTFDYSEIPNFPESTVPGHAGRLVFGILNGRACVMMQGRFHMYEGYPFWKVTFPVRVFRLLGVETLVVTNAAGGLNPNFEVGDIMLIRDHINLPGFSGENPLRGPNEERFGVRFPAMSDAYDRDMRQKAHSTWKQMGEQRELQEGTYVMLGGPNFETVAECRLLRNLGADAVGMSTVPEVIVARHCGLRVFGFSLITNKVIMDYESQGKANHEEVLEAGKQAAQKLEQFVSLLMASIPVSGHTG

plasma inosine = plasma inosine in Lewis Rats after intraperitoneal injection (HPLC); assay type: in vivo; details: 30 mg (IA), twice per day, 10% DMSO aqueous carrier, vs vehicle controls, other compounds per procedure of Example 16
Procedure: A pharmaceutical composition for intraperitoneal injection is prepared for testing the compound (IA). An intraperitoneal injection solution containing the compound (IA) is dissolved in an aqueous carrier that contains ten percent DMSO.
The compound (IA) is intraperitoneally injected into Lewis Rats via the test composition of Example 15 to provide 30 mg of the compound (IA), with an injection given twice per day. Controls are used, which receive only the vehicle. At specific times after administration, the animals are sacrificed and plasma samples are prepared. The plasma is extracted with cold 0.5N HClO4 and neutralized with solid NH4 HCO3. After removal of perchlorate salts, the extract is subjected to HPLC on a reversed phase column (Spherisorb ODSI).
Compounds prepared as in Examples 10-14 are each made into a pharmaceutical formulation in accordance with the preparation of Example 15 and the resultant injectable solutions are tested in accordance with the procedure of Example 16.

IC50 [1]: 145 µM | IC50 ([1]; 1 mM phosphate, calf spleen PNP, read-out: IC50): 1.3 µM
SMILES: Nc1nc2c(C3CCCCC3)c[nH]c2c(=O)[nH]1 [ID, 2-amino-7-(cyclohexyl)-3H,5H-pyrrolo[3,2-d]-pyrimidin-4-one]

SMILES: Nc1nc2c(C3C=CCCC3)c[nH]c2c(=O)[nH]1 (centres unmarked) [IB, 2-amino-7-(2-cyclohexenyl)-3H, 5H-pyrrolo[3,2-d]pyrimidin-4-one]
enzyme-inhibition activity ([1]; calf spleen PNP): significant enzyme-inhibition activity

SMILES: Nc1nc2c(C3=CCCCC3)c[nH]c2c(=O)[nH]1 [IA, 2-amino-7-(1-cyclohexenyl)-3H,5H-pyrrolo [3,2-d]pyrimidin-4-one]
increase in plasma inosine (plasma inosine): significant increase in plasma inosine

SMILES: Nc1nc2c(C3CC=CCC3)c[nH]c2c(=O)[nH]1 (centres unmarked) [IC, 2-amino-7-(3-cyclohexenyl)-3H, 5H-pyrrolo[3,2-d]-pyrimidin-4-one]
enzyme-inhibition activity ([1]; calf spleen PNP): significant enzyme-inhibition activity
